Measured values from ChEMBL document CHEMBL1136896, “Synthesis and biological evaluation of arylhydrazinocyanoacrylates and N-aryl pyrazolecarboxylates” (2009).

Each molecule was assayed on Mycosphaerella arachidis (assay: Fungicidal activity against Cercospora arachidicola assessed as inhibition of mycelium growth at 50 mg/L after 72 hrs). Conditions: not given.
Assay type: functional

SMILES | inhibition at 50 µg/mL [%]
CCOCCOC(=O)/C(C#N)=C(/CC)NNc1ccc(Cl)cc1Cl | 51.5
CCOCCOC(=O)c1c(C(C)C)nn(-c2ccc([N+](=O)[O-])cc2)c1N | 44.1
CCOCCOC(=O)/C(C#N)=C(\NNc1c(Cl)cccc1Cl)C(C)C | 0
CCOCCOC(=O)c1c(SC)nn(-c2ccc(C)cc2C)c1N | 35.3

What follows are molecules tested on HL-60 (assay: Antitumor activity against human HL60 cells at 1 uM/L after 72 hrs by MTT assay). Conditions: HL-60, 72 h.
Assay type: functional

SMILES | inhibition at 1 µM [%]
CCOCCOC(=O)/C(C#N)=C(/CC)NNc1ccc(Cl)cc1Cl | 0
CCOCCOC(=O)c1c(C(C)C)nn(-c2ccc([N+](=O)[O-])cc2)c1N | 0
CCOCCOC(=O)/C(C#N)=C(\NNc1c(Cl)cccc1Cl)C(C)C | 0
CCOCCOC(=O)c1c(SC)nn(-c2ccc(C)cc2C)c1N | 9.4

The molecules below were run on Bel-7402 (assay: Antitumor activity against human Bel7402 cells at 1 uM/L after 72 hrs by MTT assay). Conditions: Bel-7402, 72 h.
Assay type: functional

SMILES | inhibition at 1 µM [%]
CCOCCOC(=O)/C(C#N)=C(/CC)NNc1ccc(Cl)cc1Cl | 0
CCOCCOC(=O)c1c(C(C)C)nn(-c2ccc([N+](=O)[O-])cc2)c1N | 0
CCOCCOC(=O)/C(C#N)=C(\NNc1c(Cl)cccc1Cl)C(C)C | 7.6
CCOCCOC(=O)c1c(SC)nn(-c2ccc(C)cc2C)c1N | 0

What follows are molecules tested on Cucumis sativus (assay: Growth regulatory activity in cucumber assessed as root growth at 10 mg/L incubated in dark for 5 days). Conditions: not given.
Assay type: functional

SMILES | Activity [%]
CCOCCOC(=O)/C(C#N)=C(/CC)NNc1ccc(Cl)cc1Cl | -5.2
CCOCCOC(=O)c1c(C(C)C)nn(-c2ccc([N+](=O)[O-])cc2)c1N | 21.9
CCOCCOC(=O)/C(C#N)=C(\NNc1c(Cl)cccc1Cl)C(C)C | -6
CCOCCOC(=O)c1c(SC)nn(-c2ccc(C)cc2C)c1N | 42.2

What follows are molecules tested on Brassica napus (assay: Herbicidal activity against Brassica napus at 1.5 kg/hectare administered postemergence of first true leaf measured after 10 days). Conditions: post-emergence, 240 h.
Assay type: functional

SMILES | inhibition at 1500 g/ha [%]
CCOCCOC(=O)/C(C#N)=C(/CC)NNc1ccc(Cl)cc1Cl | 0
CCOCCOC(=O)c1c(C(C)C)nn(-c2ccc([N+](=O)[O-])cc2)c1N | 0
CCOCCOC(=O)/C(C#N)=C(\NNc1c(Cl)cccc1Cl)C(C)C | 2.3
CCOCCOC(=O)c1c(SC)nn(-c2ccc(C)cc2C)c1N | 24.1

These molecules were tested on HL-60 (assay: Antitumor activity against human HL60 cells at 10 uM/L after 72 hrs by MTT assay). Conditions: HL-60, 72 h.
Assay type: functional

SMILES | inhibition at 10 µM [%]
CCOCCOC(=O)/C(C#N)=C(/CC)NNc1ccc(Cl)cc1Cl | 0
CCOCCOC(=O)c1c(C(C)C)nn(-c2ccc([N+](=O)[O-])cc2)c1N | 9
CCOCCOC(=O)/C(C#N)=C(\NNc1c(Cl)cccc1Cl)C(C)C | 7.7
CCOCCOC(=O)c1c(SC)nn(-c2ccc(C)cc2C)c1N | 21

These molecules were tested on Digitaria sanguinalis (assay: Herbicidal activity against Digitaria sanguinalis at 1.5 kg/hectare administered postemergence of first true leaf measured after 10 days). Conditions: post-emergence, 240 h.
Assay type: functional

SMILES | inhibition at 1500 g/ha [%]
CCOCCOC(=O)/C(C#N)=C(/CC)NNc1ccc(Cl)cc1Cl | 0
CCOCCOC(=O)c1c(C(C)C)nn(-c2ccc([N+](=O)[O-])cc2)c1N | 0
CCOCCOC(=O)/C(C#N)=C(\NNc1c(Cl)cccc1Cl)C(C)C | 0
CCOCCOC(=O)c1c(SC)nn(-c2ccc(C)cc2C)c1N | 0

Each molecule was assayed on Fusarium graminearum (assay: Fungicidal activity against Gibberella zeae assessed as inhibition of mycelium growth at 50 mg/L after 72 hrs). Conditions: not given.
Assay type: functional

SMILES | inhibition at 50 µg/mL [%]
CCOCCOC(=O)/C(C#N)=C(/CC)NNc1ccc(Cl)cc1Cl | 28.6
CCOCCOC(=O)c1c(C(C)C)nn(-c2ccc([N+](=O)[O-])cc2)c1N | 46.7
CCOCCOC(=O)/C(C#N)=C(\NNc1c(Cl)cccc1Cl)C(C)C | 4.8
CCOCCOC(=O)c1c(SC)nn(-c2ccc(C)cc2C)c1N | 46.7

Each molecule was assayed on Botryosphaeria berengeriana (assay: Fungicidal activity against Physalospora pyricola assessed as inhibition of mycelium growth at 50 mg/L after 72 hrs). Conditions: not given.
Assay type: functional

SMILES | inhibition at 50 µg/mL [%]
CCOCCOC(=O)/C(C#N)=C(/CC)NNc1ccc(Cl)cc1Cl | 76
CCOCCOC(=O)c1c(C(C)C)nn(-c2ccc([N+](=O)[O-])cc2)c1N | 46.7
CCOCCOC(=O)/C(C#N)=C(\NNc1c(Cl)cccc1Cl)C(C)C | 10.7
CCOCCOC(=O)c1c(SC)nn(-c2ccc(C)cc2C)c1N | 9.3

Each molecule was assayed on Alternaria solani (assay: Fungicidal activity against Alternaria solani assessed as inhibition of mycelium growth at 50 mg/L after 72 hrs). Conditions: not given.
Assay type: functional

SMILES | inhibition at 50 µg/mL [%]
CCOCCOC(=O)/C(C#N)=C(/CC)NNc1ccc(Cl)cc1Cl | 40
CCOCCOC(=O)c1c(C(C)C)nn(-c2ccc([N+](=O)[O-])cc2)c1N | 16
CCOCCOC(=O)/C(C#N)=C(\NNc1c(Cl)cccc1Cl)C(C)C | 10
CCOCCOC(=O)c1c(SC)nn(-c2ccc(C)cc2C)c1N | 8

These molecules were tested on Amaranthus retroflexus (assay: Herbicidal activity against Amaranthus retroflexus at 1.5 kg/hectare administered preemergence of first true leaf measured after 10 days). Conditions: pre-emergence, 240 h.
Assay type: functional

SMILES | inhibition at 1500 g/ha [%]
CCOCCOC(=O)/C(C#N)=C(/CC)NNc1ccc(Cl)cc1Cl | 0
CCOCCOC(=O)c1c(C(C)C)nn(-c2ccc([N+](=O)[O-])cc2)c1N | 0
CCOCCOC(=O)/C(C#N)=C(\NNc1c(Cl)cccc1Cl)C(C)C | 0
CCOCCOC(=O)c1c(SC)nn(-c2ccc(C)cc2C)c1N | 0

These molecules were tested on Bel-7402 (assay: Antitumor activity against human Bel7402 cells at 1000 uM/L after 72 hrs by MTT assay). Conditions: Bel-7402, 72 h.
Assay type: functional

SMILES | inhibition at 1000 µM [%]
CCOCCOC(=O)/C(C#N)=C(/CC)NNc1ccc(Cl)cc1Cl | 0
CCOCCOC(=O)c1c(C(C)C)nn(-c2ccc([N+](=O)[O-])cc2)c1N | 48.6
CCOCCOC(=O)/C(C#N)=C(\NNc1c(Cl)cccc1Cl)C(C)C | 45.1
CCOCCOC(=O)c1c(SC)nn(-c2ccc(C)cc2C)c1N | 32.9

What follows are molecules tested on Medicago sativa (assay: Herbicidal activity against Medicago sativa at 1.5 kg/hectare administered postemergence of first true leaf measured after 10 days). Conditions: post-emergence, 240 h.
Assay type: functional

SMILES | inhibition at 1500 g/ha [%]
CCOCCOC(=O)/C(C#N)=C(/CC)NNc1ccc(Cl)cc1Cl | 0
CCOCCOC(=O)c1c(C(C)C)nn(-c2ccc([N+](=O)[O-])cc2)c1N | 0
CCOCCOC(=O)/C(C#N)=C(\NNc1c(Cl)cccc1Cl)C(C)C | 1.4
CCOCCOC(=O)c1c(SC)nn(-c2ccc(C)cc2C)c1N | 0

Each molecule was assayed on HL-60 (assay: Antitumor activity against human HL60 cells at 1000 uM/L after 72 hrs by MTT assay). Conditions: HL-60, 72 h.
Assay type: functional

SMILES | inhibition at 1000 µM [%]
CCOCCOC(=O)/C(C#N)=C(/CC)NNc1ccc(Cl)cc1Cl | 57.2
CCOCCOC(=O)c1c(C(C)C)nn(-c2ccc([N+](=O)[O-])cc2)c1N | 10
CCOCCOC(=O)/C(C#N)=C(\NNc1c(Cl)cccc1Cl)C(C)C | 73.4
CCOCCOC(=O)c1c(SC)nn(-c2ccc(C)cc2C)c1N | 43.5

Each molecule was assayed on Brassica napus (assay: Herbicidal activity against Brassica napus L. at 1.5 kg/hectare administered preemergence of first true leaf measured after 10 days). Conditions: pre-emergence, 240 h.
Assay type: functional

SMILES | inhibition at 1500 g/ha [%]
CCOCCOC(=O)/C(C#N)=C(/CC)NNc1ccc(Cl)cc1Cl | 0
CCOCCOC(=O)c1c(C(C)C)nn(-c2ccc([N+](=O)[O-])cc2)c1N | 0
CCOCCOC(=O)/C(C#N)=C(\NNc1c(Cl)cccc1Cl)C(C)C | 9.9
CCOCCOC(=O)c1c(SC)nn(-c2ccc(C)cc2C)c1N | 0

What follows are molecules tested on Cladosporium cucumerinum (assay: Fungicidal activity against Cladosporium cucumerinum assessed as inhibition of mycelium growth at 50 mg/L after 72 hrs). Conditions: not given.
Assay type: functional

SMILES | inhibition at 50 µg/mL [%]
CCOCCOC(=O)/C(C#N)=C(/CC)NNc1ccc(Cl)cc1Cl | 38.9
CCOCCOC(=O)c1c(C(C)C)nn(-c2ccc([N+](=O)[O-])cc2)c1N | 40
CCOCCOC(=O)/C(C#N)=C(\NNc1c(Cl)cccc1Cl)C(C)C | 0
CCOCCOC(=O)c1c(SC)nn(-c2ccc(C)cc2C)c1N | 10.9

These molecules were tested on HL-60 (assay: Antitumor activity against human HL60 cells at 100 uM/L after 72 hrs by MTT assay). Conditions: HL-60, 72 h.
Assay type: functional

SMILES | inhibition at 100 µM [%]
CCOCCOC(=O)/C(C#N)=C(/CC)NNc1ccc(Cl)cc1Cl | 0
CCOCCOC(=O)c1c(C(C)C)nn(-c2ccc([N+](=O)[O-])cc2)c1N | 27.8
CCOCCOC(=O)/C(C#N)=C(\NNc1c(Cl)cccc1Cl)C(C)C | 21.4
CCOCCOC(=O)c1c(SC)nn(-c2ccc(C)cc2C)c1N | 49.9

Each molecule was assayed on Amaranthus retroflexus (assay: Herbicidal activity against Amaranthus retroflexus at 1.5 kg/hectare administered postemergence of first true leaf measured after 10 days). Conditions: post-emergence, 240 h.
Assay type: functional

SMILES | inhibition at 1500 g/ha [%]
CCOCCOC(=O)/C(C#N)=C(/CC)NNc1ccc(Cl)cc1Cl | 18
CCOCCOC(=O)c1c(C(C)C)nn(-c2ccc([N+](=O)[O-])cc2)c1N | 0
CCOCCOC(=O)/C(C#N)=C(\NNc1c(Cl)cccc1Cl)C(C)C | 15.6
CCOCCOC(=O)c1c(SC)nn(-c2ccc(C)cc2C)c1N | 0

What follows are molecules tested on Digitaria sanguinalis (assay: Herbicidal activity against Digitaria sanguinalis (L.) Scop. at 1.5 kg/hectare administered preemergence of first true leaf measured after 10 days). Conditions: pre-emergence, 240 h.
Assay type: functional

SMILES | inhibition at 1500 g/ha [%]
CCOCCOC(=O)/C(C#N)=C(/CC)NNc1ccc(Cl)cc1Cl | 0
CCOCCOC(=O)c1c(C(C)C)nn(-c2ccc([N+](=O)[O-])cc2)c1N | 0
CCOCCOC(=O)/C(C#N)=C(\NNc1c(Cl)cccc1Cl)C(C)C | 0
CCOCCOC(=O)c1c(SC)nn(-c2ccc(C)cc2C)c1N | 0

Each molecule was assayed on Medicago sativa (assay: Herbicidal activity against Medicago sativa at 1.5 kg/hectare administered preemergence of first true leaf measured after 10 days). Conditions: pre-emergence, 240 h.
Assay type: functional

SMILES | inhibition at 1500 g/ha [%]
CCOCCOC(=O)/C(C#N)=C(/CC)NNc1ccc(Cl)cc1Cl | 0
CCOCCOC(=O)c1c(C(C)C)nn(-c2ccc([N+](=O)[O-])cc2)c1N | 0
CCOCCOC(=O)/C(C#N)=C(\NNc1c(Cl)cccc1Cl)C(C)C | 0
CCOCCOC(=O)c1c(SC)nn(-c2ccc(C)cc2C)c1N | 0

What follows are molecules tested on Bel-7402 (assay: Antitumor activity against human Bel7402 cells at 100 uM/L after 72 hrs by MTT assay). Conditions: Bel-7402, 72 h.
Assay type: functional

SMILES | inhibition at 100 µM [%]
CCOCCOC(=O)/C(C#N)=C(/CC)NNc1ccc(Cl)cc1Cl | 0
CCOCCOC(=O)c1c(C(C)C)nn(-c2ccc([N+](=O)[O-])cc2)c1N | 10.7
CCOCCOC(=O)/C(C#N)=C(\NNc1c(Cl)cccc1Cl)C(C)C | 17.3
CCOCCOC(=O)c1c(SC)nn(-c2ccc(C)cc2C)c1N | 0

What follows are molecules tested on Bel-7402 (assay: Antitumor activity against human Bel7402 cells at 10 uM/L after 72 hrs by MTT assay). Conditions: Bel-7402, 72 h.
Assay type: functional

SMILES | inhibition at 10 µM [%]
CCOCCOC(=O)/C(C#N)=C(/CC)NNc1ccc(Cl)cc1Cl | 0
CCOCCOC(=O)c1c(C(C)C)nn(-c2ccc([N+](=O)[O-])cc2)c1N | 6.2
CCOCCOC(=O)/C(C#N)=C(\NNc1c(Cl)cccc1Cl)C(C)C | 9.5
CCOCCOC(=O)c1c(SC)nn(-c2ccc(C)cc2C)c1N | 0
